From the supplement of paper PMC10307832

Legend:
Test in all cases: relative viability (nuclei count vs DMSO), 5 days (fraction); higher = more cells survive
[1] = compound: C(C(=O)C(=O)O)Br [Bromopyruvate] + CC(C)C[C@H](NC(=O)[C@H](Cc1ccccc1)NC(=O)c1cnccn1)B(O)O [Bortezomib] (partner 0.002 µM)
Outline: (§1)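 After 5 days of treatment, lung cancer cells in 1536-well plates were fixed and stained in a single step (final 0.05% Triton X-100, 1% formaldehyde, 1 ug/ml Hoechst) and their nuclei counted on 4× images. Treatment had been applied by pin tool the day after seeding as one drug alone or as a fixed anchor-drug dose with five library-drug doses (not always all listed) in √10 steps. Relative viability is the nuclei count of treated wells divided by that of vehicle wells, and values are medians of duplicate plates.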

[2] = compound: C(C(=O)C(=O)O)Br [Bromopyruvate] + Cc1nc(Nc2ncc(C(=O)Nc3c(C)cccc3Cl)s2)cc(N2CCN(CCO)CC2)n1 [Dasatinib] (partner 0.075 µM)
Outline: as §1

[3] = compound: CC(O)(CS(=O)(=O)c1ccc(F)cc1)C(=O)Nc1ccc(C#N)c(C(F)(F)F)c1 [Bicalutamide] + CC(=O)Nc1cccc(-n2c(=O)n(C3CC3)c(=O)c3c(Nc4ccc(I)cc4F)n(C)c(=O)c(C)c32)c1 [Trametinib] (partner 0.02 µM)
Outline: as §1

Bicalutamide + Foretinib = compound: CC(O)(CS(=O)(=O)c1ccc(F)cc1)C(=O)Nc1ccc(C#N)c(C(F)(F)F)c1 [Bicalutamide] + COc1cc2c(Oc3ccc(NC(=O)C4(C(=O)Nc5ccc(F)cc5)CC4)cc3F)ccnc2cc1OCCCN1CCOCC1 [Foretinib] (partner 0.25 µM)
Outline: as §1

Row | Cell Line | relative viability ([1]; first compound 1 µM) | relative viability ([1]; first compound 3.162 µM) | relative viability ([1]; first compound 10 µM) | relative viability ([1]; first compound 31.62 µM) | relative viability ([1]; first compound 100 µM) | relative viability ([2]; first compound 1 µM) | relative viability ([2]; first compound 3.162 µM) | relative viability ([2]; first compound 10 µM) | relative viability ([2]; first compound 31.62 µM) | relative viability ([2]; first compound 100 µM) | relative viability ([3]; first compound 0.08 µM) | relative viability ([3]; first compound 0.253 µM) | relative viability ([3]; first compound 0.8 µM) | relative viability ([3]; first compound 2.53 µM) | relative viability (Bicalutamide + Foretinib; first compound 0.08 µM) | relative viability (Bicalutamide + Foretinib; first compound 0.253 µM) | relative viability (Bicalutamide + Foretinib; first compound 0.8 µM) | relative viability (Bicalutamide + Foretinib; first compound 2.53 µM)
1 | NCI-H2228 | 0.857 | 1.15 | 1.36 | 0.817 | 0.946 | 0.464 | 0.532 | 0.52 | 0.455 | 0.633 | 0.39 | 0.54 | 0.616 | 0.34 | 0.933 | 0.843 | 1 | 1.02
2 | EMC-BAC-2 | 0.99 | 1.14 | 1.2 | 1.02 | 1.12 | 0.317 | 0.34 | 0.449 | 0.297 | 0.334 | 0.911 | 0.771 | 0.891 | 0.728 | 1.02 | 0.867 | 1.02 | 0.928
3 | NCI-H2009 | 1.02 | 1.02 | 0.918 | 0.897 | 0.768 | 0.281 | 0.297 | 0.279 | 0.243 | 0.202 | 0.296 | 0.225 | 0.296 | 0.248 | 1.35 | 1.23 | 1.19 | 1.17
4 | NCI-H596 |  | 1.14 | 1.01 | 0.915 | 1.03 | 0.6 | 0.527 | 0.676 | 0.747 | 0.685 | 0.76 | 0.765 | 0.994 | 0.952 | 0.986 | 0.87 | 0.976 | 0.946
5 | NCI-H650 | 0.946 | 0.819 | 0.856 | 0.897 | 0.973 | 0.523 | 0.442 | 0.487 | 0.439 | 0.576 | 1.04 | 1.01 | 1.12 | 0.934 | 1.07 | 1.07 | 1.17 | 0.936
6 | SW 1573 | 0.935 | 1.02 | 1.18 | 1.08 | 0.392 | 0.598 | 0.684 | 0.492 | 0.276 | 0.0416 | 0.668 | 0.473 | 0.748 | 0.608 | 0.929 | 0.71 | 1.08 | 0.778
7 | ChaGo-K-1 | 1.08 | 1.02 | 1.01 | 1.07 | 0.953 | 0.59 | 0.607 | 0.604 | 0.586 | 0.589 | 0.854 | 0.865 | 1.03 | 0.926 | 0.897 | 0.748 | 0.937 | 0.825
8 | NCI-H1650 | 0.196 | 0.194 | 0.209 | 0.255 | 0.19 | 0.309 | 0.268 | 0.289 | 0.395 | 0.211 | 0.586 | 0.529 | 0.713 | 0.473 | 1.28 | 1.17 | 1.14 | 1.27
9 | NCI-H2023 | 0.95 | 1.09 | 0.969 | 0.914 | 1.06 | 0.398 | 0.566 | 0.661 | 0.573 | 0.562 | 0.547 | 0.52 | 0.556 | 0.382 | 0.957 | 0.506 | 0.845 | 0.774
